According to patent US6727244B2, “Mammalian metabolites of a tachykinin receptor antagonist” (Merck & Co., Inc., priority 2000, dated 2004):

Columns and labels:
[1] = biological target: T1, human NK1 receptor (Homo sapiens, UniProt P25103); experiment: human NK1 receptor binding assay (125I-substance P, COS or CHO cells)
T1 construct: expressed in transfected cells
Procedure: To express the cloned human neurokinin-1 receptor (NKIR) transiently in COS, the cDNA for the human NKIR was cloned into the expression vector pCDM9 which was derived from pCDM8 (INVITROGEN) by inserting the ampicillin resistance gene (nucleotide 1973 to 2964 from BLUESCRIPT SK+) into the Sac II site. Transfection of 20 ug of the plasmid DNA into 10 million COS cells was achieved by electroporation in 800 ul of transfection buffer (135 mM NaCl, 1.2 mM CaCl2, 1.2 mM MgCl2, 2.4 mM K2HPO4, 0.6 mM KH2PO4, 10 mM glucose, 10 mM HEPES pH 7.4) at 260 V and 950 uF using the IBI GENEZAPPER (IBI, New Haven, Conn.). The cells were incubated in 10% fetal calf serum, 2 mM glutamine, 100U/ml penicillin-streptomycin, and 90% DMEM media (GIBCO, Grand Island, N.Y.) in 5% CO2 at 37° C. for three days before the binding assay.
To establish a stable cell line expressing the cloned human NK1R, the cDNA was subcloned into the vector pRcCMV (INVITROGEN). Transfection of 20 ug of the plasmid DNA into CHO cells was achieved by electroporation in 800 ul of transfection buffer suplemented with 0.625 mg/ml Herring sperm DNA at 300 V and 950 uF using the IBI GENEZAPPER (IBI). The transfected cells were incubated in CHO media [10 % fetal calf serum, 100 U/ml pennicilin-streptomycin, 2 mM glutamine, 1/500 hypoxanthine-thymidine (ATCC), 90% IMDM media (JRH BIOSClENCES, Lenexa, Kans.), 0.7 mg/ml G418 (GIBCO)] in 5% CO2 at 37° C. until colonies were visible. Each colony was separated and propagated. The cell clone with the highest number of human NK1R was selected for subsequent applications such as drug screening.
The binding assay of human NK1R expressed in either COS or CHO cells is based on the use of ^125I-substance P (^125I-SP, from DU PONT, Boston, Mass.) as a radioactively labeled ligand which competes with unlabeled substance P or any other ligand for binding to the human NK1R. Monolayer cell cultures of COS or CHO were dissociated by the non-enzymatic solution (SPECIALTY MEDIA, Lavallette, N.J.) and resuspended in appropriate volume of the binding buffer (50 mM Tris pH 7.5, 5 mM MnCl2, 150 mM NaCl, 0.04 mg/ml bacitracin, 0.004 mg/ml leupeptin, 0.2 mg/ml BSA, 0.01 mM phosphoramidon) such that 200 ul of the cell suspension would give rise to about 10,000 cpm of specific ^125I-SP binding (approximately 50,000 to 200,000 cells). […] The bound radioactivity was separated from unbound radioactivity by GF/C filter (BRANDEL, Gaithersburg, Md.) which was pre-wetted with 0.1 % polyethylenimine. The filter was washed with 3 ml of wash buffer (50 mM Tris pH 7.5, 5 mM MnCl2, 150 mM NaCl) three times and its radioactivity was determined by gamma counter.

[2] = glucuronidation in liver microsomes from humans; type: in vitro ADME; details: human liver microsomes, UDPGA, 37° C. for 60 min
Procedure: All liver microsomal and cytosolic fractions were prepared using the following procedure. Thawed livers were homogenized with 2 volumes of 50 mM Tris-buffer (pH 7.5) containing 1.15% KCl. For microsomal and cytosolic preparations, the homogenate was centrifuged for 20 min at 9,000×g and the resulting supernatant was centrifuged for 60 min at 105,000×g. The resulting cytosolic fractions were re-centrifuged at 105,000×g for 60 min. Fractions of cytosol were aliquoted into small tubes and stored at −70° C. Subsequently, the microsomal pellets were washed with 10 mM EDTA containing 1.15% KCl and were centrifuged at 105,000×g for 60 min. […] Protein concentrations were determined by a modified Lowry assay (Smith et al., 1985). The specific cytochrome P450 content in each microsomal preparation was measured as described by Omura and Sato, J. Biol. Chem. 239, 2370-2378 (1964).
The typical reaction mixture (500 μl) containing 10 mM MgCl2, 2% glycerol, 0.02% lubrol PX, 3 mM UDPGA, 1 mg liver microsomes, 50 mM bis-tris propane buffer (pH 8.5) and ˜10 or 25 μM compound (in 15 μl methanol) was incubated at 37° C. for 30-60 min. After incubation, the reactions were terminated by the addition of four volumes of acetonitrile and processed and analyzed by HPLC as mentioned above.

T1 sequence (P25103 whole entry): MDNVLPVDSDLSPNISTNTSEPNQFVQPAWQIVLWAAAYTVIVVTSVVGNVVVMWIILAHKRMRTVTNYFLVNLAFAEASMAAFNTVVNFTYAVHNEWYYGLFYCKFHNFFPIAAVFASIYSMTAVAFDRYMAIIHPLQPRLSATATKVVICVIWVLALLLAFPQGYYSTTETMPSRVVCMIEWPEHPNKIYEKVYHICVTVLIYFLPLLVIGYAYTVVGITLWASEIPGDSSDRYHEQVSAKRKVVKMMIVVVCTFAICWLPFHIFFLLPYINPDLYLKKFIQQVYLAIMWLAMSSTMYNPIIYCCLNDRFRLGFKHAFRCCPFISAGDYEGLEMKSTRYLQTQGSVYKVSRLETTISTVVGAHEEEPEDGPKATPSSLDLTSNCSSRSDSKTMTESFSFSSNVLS

IC50 [1]: 1 nM
conversion to the corresponding glucuronide [2]: ~20%
Compound: C[C@@H](O[C@H]1OCCN[C@H]1c1ccc(F)cc1)c1cc(C(F)(F)F)cc(C(F)(F)F)c1 [Metabolite M-1, (2R,3S)-2-[(1R)-1-[3,5-bis(trifluoromethyl)phenyl]ethoxy]-3-(4-fluorophenyl)morpholine]
